Values after ≈ are worked out from the molar mass of the structure shown.
Key:
[1] = system: HeLa; experiment: Maximum testable level (antiviral activity) was evaluated in HeLa cells against human rhino virus; type: functional
[2] = system: Vero; experiment: Maximum testable level was evaluated in Vero cells that causes no apparent effects on cell monolayers.; type: functional, Chlorocebus sabaeus
[3] = system: Vero; experiment: Minimum inhibitory concentration (antiviral activity) was screened in Vero cells against Coxsackie B1 (Coxs); type: functional; settings: Chlorocebus sabaeus
[4] = system: Vero; experiment: Minimum inhibitory concentration (antiviral activity) was screened in Vero cells against herpes simplex virus type 1 (HSV-1); type: functional; settings: Chlorocebus sabaeus
[5] = system: Vero; experiment: Minimum inhibitory concentration (antiviral activity) was screened in Vero cells against polio type 1 (Sabin strain, Sb-1); type: functional; settings: Chlorocebus sabaeus
[6] = Selectivity index was the ratio of maximum testable level to that of minimum inhibitory concentration in human rhino virus; type: functional
[7] = system: HeLa; experiment: Minimum inhibitory concentration (antiviral activity) was evaluated n HeLa cells against human rhino virus; type: functional
[8] = Selectivity index was determined as ratio of maximum testable level to that of minimum inhibitory concentration; type: functional
[9] = system: Vero; experiment: Minimum inhibitory concentration (antiviral activity) was screened in Vero cells against Vesicular Stomatitis virus (VSV); type: functional; settings: Chlorocebus sabaeus
[10] = system: Vero; experiment: Minimum inhibitory concentration (antiviral activity) was screened in Vero cells against vaccinia virus (VV); type: functional; settings: Chlorocebus sabaeus

| SMILES | MTL [1] [µM] | MTL [2] [µM] | MIC [3] [µM] | MIC [4] [µM] | MIC [5] [µM] | Selectivity index [6] | MIC [7] [µM] | Selectivity index [8] | MIC [9] [µM] | MIC [10] [µM] |
| --- | --- | --- | --- | --- | --- | --- | --- | --- | --- | --- |
| CCOC(=O)c1ccc(OCCCCC(=O)c2ccc(Cl)s2)cc1 | >545 | >190 | > 190 | > 190 | 80 (≈ 29.3 µg/mL) | >1362 | 0.4 (≈ 0.147 µg/mL) | – | – | – |
| Cn1cc(C(=O)CCCCOc2ccc(C3=NCCO3)cc2)cc1C=O | >565 | >280 | > 280 | > 280 | – | – | 20 (≈ 7.09 µg/mL) | – | – | – |
| Clc1ccc(CCCCCOc2ccc(C3=NCCO3)cc2)s1 | >60 | 30 | > 30 | > 30 | 25 (≈ 8.75 µg/mL) | – | 2.8 (≈ 0.98 µg/mL) | – | – | – |
| Cn1cccc1C(=O)CCCCOc1ccc(C2=NCCO2)cc1 | >610 | >300 | > 300 | > 300 | 300 (≈ 97.9 µg/mL) | – | 1.5 (≈ 0.49 µg/mL) | > 406 | – | – |
| O=C(O)c1ccc(OCCCCC(=O)c2ccc(Cl)s2)cc1 | >590 | >170 | > 170 | > 170 | 30 (≈ 10.2 µg/mL) | – | > 50 | – | – | – |
| Cc1cc(CCCCCCCOc2ccc(C3=NCCO3)cc2)on1 [DISOXARIL] | >18 | – | – | – | – | 45 | 0.4 (≈ 0.137 µg/mL) | – | – | – |
| Cn1cc(C(=O)CCCCOc2ccc(C(=O)O)cc2)cc1C=O | >610 | 380 | > 380 | > 380 | 380 (≈ 125 µg/mL) | – | > 50 | – | – | – |
| O=C(O)c1ccc(OCCCCCc2ccc(Cl)s2)cc1 | 20 | 60 | > 60 | > 60 | 20 (≈ 6.5 µg/mL) | – | > 20 | – | – | – |
| CCOC(=O)c1ccc(OCCCCC(=O)c2ccc(C)o2)cc1 | 65 | >120 | 60 (≈ 19.8 µg/mL) | 75 (≈ 24.8 µg/mL) | 15 (≈ 4.96 µg/mL) | – | 2.4 (≈ 0.793 µg/mL) | – | > 120 | 30 (≈ 9.91 µg/mL) |
| O=C(CCCCOc1ccc(C2=NCCO2)cc1)c1ccc[nH]1 | >640 | >175 | > 175 | > 175 | 60 (≈ 18.7 µg/mL) | – | 7.5 (≈ 2.34 µg/mL) | – | – | – |
| O=C(CCCCOc1ccc(C2=NCCO2)cc1)c1ccc(Cl)s1 | >550 | >275 | > 275 | > 275 | 200 (≈ 72.8 µg/mL) | – | 0.1 (≈ 0.0364 µg/mL) | > 5500 | – | – |
| CCOC(=O)c1ccc(OCCCCC(=O)c2cc(C=O)n(C)c2)cc1 | >20 | 55 | – | > 55 | 5 (≈ 1.79 µg/mL) | – | 1.4 (≈ 0.5 µg/mL) | – | – | – |
